Assay results published in patent publication US10322123B2, “Compound for anti-cancer therapy that acts by targeting GOF mutant P53 and stimulates P73 to restore the P53 pathway signaling” (The Penn State Research Foundation, priority 2014, dated 2019).

Assays:
p21, Puma and Noxa mRNA = test: qRT-PCR of p53 target gene mRNA; format: cell-based, human
Description: (§1) Total RNA was isolated from cells using RNeasy mini kit (Qiagen, USA) by the recommended protocol. Reverse transcription used SuperScript II first-strand synthesis system (Invitrogen, USA) with random primers. qRT-PCR reactions used SYBR green master mix with the Real-Time PCR Detection systems (Bio-Rad, USA). Primers for qRT-PCR are (forward) 5′-[…]-3′ (SEQ ID NO: 1) and (reverse) 5′-[…]-3′ (SEQ ID NO: 2) for p53, (forward) 5′-TGTCCGTCAGAACCCATG-3′ (SEQ ID NO: 3) and (reverse) 5′-[…]-3′ (SEQ ID NO: 4) for p21, (forward) 5′-[…]-3′ (SEQ ID NO: 5) and (reverse) 5′-[…]-3′ (SEQ ID NO: 6) for Puma, (forward) 5′-[…]-3′ (SEQ ID NO: 7) and (reverse) 5′-[…]-3′ (SEQ ID NO: 8) for Noxa, (forward) 5′-CTGGGCTACACTGAGCACC-3′ (SEQ ID NO: 9) and (reverse) 5′-[…]-3′ (SEQ ID NO: 10) for Gapdh. Target gene expression levels were normalized with Gapdh.

p21, Puma, DR5 and Noxa = test: Western blot of p53 target gene proteins; format: cell-based, human
Method: (§2) Proteins were extracted from cells and electrophoresed through 4-12% SDS-PAGE then transferred to PVDF membranes. The primary antibodies indicated in the figures were incubated with the transferred PVDF in blocking buffer at 4° C. overnight. Antibody binding was detected on PVDF with appropriate IRDye-secondary antibodies (LI-COR Biosciences, USA) by the ODYSSEY infrared imaging system.

[1] = tested on: MRC5 normal human fibroblast cells; test: Flow cytometry sub-G1 DNA content; format: cell-based; settings: 50 μM, 72 hr
Method: (§3) Cells were treated with NSC59984 or other drugs. Seventy-two hours after treatment, the cells were fixed with ethanol and stained with Propidium Iodide (PI). The samples were then subjected to analysis by an Epics Elite flow cytometer to measure the DNA content of the stained cells.

[2] = tested on: Wi38 normal human fibroblast cells; test: Flow cytometry sub-G1 DNA content; format: cell-based; settings: 50 μM, 72 hr
Method: as §3

[3] = tested on: cancer cell lines bearing different p53 mutations; test: CellTiter-Glo luminescent cell viability assay, cell line panel; format: cell-based, human; settings: most cancer cells compared with normal cells, 72 hr
Method: (§4) Cells at a concentration of 5000 cells/well in 96-well plates were treated with NSC59984 or other drugs. At seventy-two hours after treatment, cells were mixed with an equal volume of CellTiter-Glo reagents (Promega, Madison, Wis.), following the manufacturer's protocol, and bioluminescence imaging was measured using the IVIS imager.

[4] = tested on: MRC-5 normal fibroblast cells; test: CellTiter-Glo cell viability, combination with CPT-11; format: cell-based, human; settings: for Combination index (CI): MRC, 72 hr
Method: as §4
(§5) All results were obtained from triplicate experiments, unless other indicated. Statistical analyses were performed using PRISM4 Software (GraphPad Software, Inc., San Diego, Calif., USA), ANOVA and Student's t-test. Statistical significances were determined by p<0.05. Combination indices were calculated using the Chou-Talalay method with CalcuSyn software (biosoft).

[5] = tested on: Wi38 normal fibroblast cells; test: as above; format: cell-based, human; settings: for Combination index (CI): Wi38, 72 hr
Method: as §4, §5

SW480 cancer cells = test: as above; format: cell-based, human; settings: for Combination index (CI): SW480, 72 hr
Method: as §4, §5

DLD-1 cells = test: Flow cytometry sub-G1 DNA content; format: cell-based, human
Method: as §3
Cells were infected with retrovirus containing the pSIREN-REtrpcQ retroviral vector recombinant with TAp73 RNAi. Cells were cultured with blasticidin for several weeks, and blasticidin-resistant clones were selected. Knock-down of p73 was detected by measuring p73 protein levels by Western blot with anti-p73 antibody (Bethyl laboratories Inc. USA).

mutant p53 mRNA = test: Mutant p53 mRNA qRT-PCR; format: cell-based, human; settings: SW480 cells, 3 hr or 16 hr, compared to DMSO control
Description: as §1

PARP cleavage = test: Cleaved PARP Western blot; format: cell-based, human; settings: for PARP cleavage: 30 hours
Method: as §2

[6] = HCT116 and p53-null HCT116 cells
[7] = CPT-11 15 mg/ml, NSC59984 12 mM
[8] = CPT-11 15 mg/ml, NSC59984 25 mM
[9] = CPT-11 30 mg/ml, NSC59984 12 mM
[10] = CPT-11 30 mg/ml, NSC59984 25 mM
[11] = CPT-11 60 mg/ml, NSC59984 12 mM
[12] = CPT-11 60 mg/ml, NSC59984 25 mM
[13] = CPT-11 120 mg/ml, NSC59984 6 mM
[14] = CPT-11 120 mg/ml, NSC59984 12 mM
[15] = CPT-11 120 mg/ml, NSC59984 25 mM
[16] = CPT-11 15 mg/ml, NSC59984 50 mM
[17] = CPT-11 30 mg/ml, NSC59984 50 mM
[18] = CPT-11 60 mg/ml, NSC59984 50 mM
[19] = CPT-11 120 mg/ml, NSC59984 50 mM

CN1CCN(C(=O)/C=C/c2ccc([N+](=O)[O-])o2)CC1 [NSC59984, (E)-1-(4-methylpiperazin-1-yl)-3-(5-nitrofuran-2-yl)prop-2-en-1-one]
Noxa mRNA (p21, Puma and Noxa mRNA; 25 μM in HCT116 and 12 μM in p53-null HCT116 cells): slightly increased
Puma and p21 mRNA level (p21, Puma and Noxa mRNA; [6]): not up-regulated
mRNA levels of p21, Noxa and Puma (p21, Puma and Noxa mRNA; SW480 and DLD-1 cells, 3 hours, dose-dependent): significantly increased
p21 protein (p21, Puma, DR5 and Noxa; [6]): up-regulated
protein levels of Puma, DR5 and Noxa (p21, Puma, DR5 and Noxa; [6]): not up-regulated
protein levels of p21, Puma, Noxa and DR5 (p21, Puma, DR5 and Noxa; SW480 and DLD-1 cells, increasing doses, 8 hr): significantly up-regulated
up-regulation of endogenous p21, Puma, DR5 and Noxa proteins (p21, Puma, DR5 and Noxa; p73 knock-down DLD-1 cells, 8 hr): reduced by p73 knock-down
DNA content in Sub-G1 [1]: 30%
DNA content in Sub-G1 [2]: 12%
EC50 cell viability [3]: significantly lower
Combination index (CI) ([4]; CPT-11 15 mg/ml, NSC59984 50 μM): 0.00 ± 0.00
Combination index (CI) ([4]; CPT-11 15 mg/ml, NSC59984 6 mM): 1.06 ± 0.43
Combination index (CI) [4, 7]: 0.91 ± 0.21
Combination index (CI) [4, 8]: 0.54 ± 0.03
Combination index (CI) ([4]; CPT-11 30 mg/ml, NSC59984 50 μM): 0.00 ± 0.00
Combination index (CI) ([4]; CPT-11 30 mg/ml, NSC59984 6 mM): 0.75 ± 0.09
Combination index (CI) [4, 9]: 0.40 ± 0.07
Combination index (CI) [4, 10]: 0.12 ± 0.07
Combination index (CI) ([4]; CPT-11 60 mg/ml, NSC59984 50 μM): 0.00 ± 0.00
Combination index (CI) ([4]; CPT-11 60 mg/ml, NSC59984 6 mM): 0.49 ± 0.09
Combination index (CI) [4, 11]: 0.08 ± 0.04
Combination index (CI) [4, 12]: 0.00 ± 0.00
Combination index (CI) ([4]; CPT-11 120 mg/ml, NSC59984 50 μM): 0.02 ± 0.00
Combination index (CI) [4, 13]: 0.06 ± 0.02
Combination index (CI) [4, 14]: 0.00 ± 0.00
Combination index (CI) [4, 15]: 0.00 ± 0.00
combinational treatment with CPT11 ([4]; normal fibroblast MRC5 cells): synergic activity
Combination index (CI) ([5]; CPT-11 15 mg/ml, NSC59984 6 mM): 1.50 ± 0.18
Combination index (CI) [5, 7]: 1.45 ± 0.12
Combination index (CI) [5, 8]: 0.88 ± 0.11
Combination index (CI) [5, 16]: 0.03 ± 0.01
Combination index (CI) ([5]; CPT-11 30 mg/ml, NSC59984 6 mM): 1.10 ± 0.14
Combination index (CI) [5, 9]: 0.95 ± 0.05
Combination index (CI) [5, 10]: 0.20 ± 0.04
Combination index (CI) [5, 17]: 0.03 ± 0.00
Combination index (CI) ([5]; CPT-11 60 mg/ml, NSC59984 6 mM): 0.58 ± 0.10
Combination index (CI) [5, 11]: 0.44 ± 0.06
Combination index (CI) [5, 12]: 0.01 ± 0.00
Combination index (CI) [5, 18]: 0.05 ± 0.00
Combination index (CI) [5, 13]: 0.96 ± 0.22
Combination index (CI) [5, 14]: 0.29 ± 0.04
Combination index (CI) [5, 15]: 0.01 ± 0.00
Combination index (CI) [5, 19]: 0.11 ± 0.02
combinational treatment with CPT11 ([5]; normal fibroblast Wi38 cells): synergic activity
Combination index (CI) (SW480 cancer cells; CPT-11 15 mg/ml, NSC59984 6 mM): 3.01 ± 0.20
Combination index (CI) (SW480 cancer cells; [7]): 2.02 ± 0.27
Combination index (CI) (SW480 cancer cells; [8]): 0.66 ± 0.04
Combination index (CI) (SW480 cancer cells; [16]): 1.00 ± 0.02
Combination index (CI) (SW480 cancer cells; CPT-11 30 mg/ml, NSC59984 6 mM): 1.80 ± 0.15
Combination index (CI) (SW480 cancer cells; [9]): 0.38 ± 0.04
Combination index (CI) (SW480 cancer cells; [10]): 0.65 ± 0.02
Combination index (CI) (SW480 cancer cells; [17]): 0.40 ± 0.04
Combination index (CI) (SW480 cancer cells; CPT-11 60 mg/ml, NSC59984 6 mM): 0.64 ± 0.17
Combination index (CI) (SW480 cancer cells; [11]): 0.22 ± 0.03
Combination index (CI) (SW480 cancer cells; [12]): 0.57 ± 0.00
Combination index (CI) (SW480 cancer cells; [18]): 0.41 ± 0.04
Combination index (CI) (SW480 cancer cells; [13]): 0.18 ± 0.01
Combination index (CI) (SW480 cancer cells; [14]): 0.36 ± 0.08
Combination index (CI) (SW480 cancer cells; [15]): 0.62 ± 0.05
Combination index (CI) (SW480 cancer cells; [19]): 0.23 ± 0.04
cell viability, combinational treatment with CPT11 (SW480 cancer cells; SW480 cancer cells as compared to MRC5 and Wi38 normal cells, 72 hr): significantly reduced
combinational treatment with CPT11 (SW480 cancer cells; SW480 colon cancer cells): synergic activity
Sub-G1 DNA content (DLD-1 cells; 50 μM, 8 hours, DLD-1): 8.2%
percentage of cells with sub-G1 content (DLD-1 cells; DLD-1 cells, 72 hr): increased
effect on percentage of cells with sub-G1 content (DLD-1 cells; p73 knock-down DLD-1 cells, 72 hr): significantly reduced
p53 mRNA (mutant p53 mRNA): not decreased
PARP cleavage (PARP cleavage; cancer cells, dose-dependent): increased
PARP cleavage (PARP cleavage; normal cells, same doses): not observed
NSC59984-induced PARP cleavage (PARP cleavage; p73 knock-down DLD-1 cells, 24 hours): partially abrogated
